The supplement of paper PMC11061612

How the values were obtained:
Test in all cases: combination Emax (second highest fraction inhibited in the dose matrix, 72 h); higher = more inhibition; extreme values may be limits of the assay
[1] = tested on: NCI-H1915 (Non-Small Cell Lung Carcinoma)
How it was run: (§1)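 Cell lines grown in DMEM/F12 or RPMI with 10% FBS were plated in 1536-well plates and held 24 hours at 37°C, 5% CO2 before 72 hours of exposure to two-drug dose matrices, with DMSO typically at 0.2%. CellTiter-Glo 2.0 luminescence gave viability, which was converted to inhibition. Vehicle wells were set to 0 and blank wells to 1. Combination Emax is the second-highest inhibition in the matrix, and Bliss excess is the observed combination effect minus the expected EA + EB − EA·EB, where EA and EB are the single-agent effects.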

[2] = tested on: NCI-H358 (Lung Adenocarcinoma)
How it was run: as §1

[3] = tested on: Caov-4 (Ovarian Carcinoma)
How it was run: as §1

[4] = tested on: LU-65 (Non-Small Cell Lung Carcinoma)
How it was run: as §1

[5] = tested on: NUGC-3 (Gastric Carcinoma)
How it was run: as §1

[6] = tested on: EW-24 (Ewing's Sarcoma)
How it was run: as §1

[7] = tested on: EoL-1-cell (Acute Myeloid Leukemia)
How it was run: as §1

[8] = tested on: KMOE-2 (Acute Myeloid Leukemia)
How it was run: as §1

[9] = tested on: MLMA (Other Blood Carcinomas)
How it was run: as §1

[10] = tested on: PWR-1E (Non-Cancerous)
How it was run: as §1

[11] = tested on: AMO-1 (Plasma Cell Myeloma)
How it was run: as §1

[12] = tested on: OE19 (Esophageal Adenocarcinoma)
How it was run: as §1

[13] = tested on: HSC-4 (Oral Cavity Carcinoma)
How it was run: as §1

[14] = tested on: OVCAR-4 (Ovarian Carcinoma)
How it was run: as §1

[15] = tested on: TE-1 (Esophageal Squamous Cell Carcinoma)
How it was run: as §1

[16] = tested on: TK10 (Kidney Carcinoma)
How it was run: as §1

[17] = tested on: HGC-27 (Gastric Carcinoma)
How it was run: as §1

[18] = tested on: KARPAS-299 (T-Cell Non-Hodgkin's Lymphoma)
How it was run: as §1

[19] = tested on: YH-13 (Glioblastoma)
How it was run: as §1

[20] = tested on: SCC-15 (Oral Cavity Carcinoma)
How it was run: as §1

Row | Structure (SMILES) | combination Emax [1] | combination Emax [2] | combination Emax [3] | combination Emax [4] | combination Emax [5] | combination Emax [6] | combination Emax [7] | combination Emax [8] | combination Emax [9] | combination Emax [10] | combination Emax [11] | combination Emax [12] | combination Emax [13] | combination Emax [14] | combination Emax [15] | combination Emax [16] | combination Emax [17] | combination Emax [18] | combination Emax [19] | combination Emax [20]
1 | CN(C)CCCOc1ccc(-c2ccc3ncc4c(c3c2)n(C2CCOCC2)c(=O)n4C)cn1 [AZD0156] + C=CCn1c(=O)c2cnc(Nc3ccc(N4CCN(C)CC4)cc3)nc2n1-c1cccc(C(C)(C)O)n1 [AZD1775] (first compound max 1 µM, partner max 1 µM) | 0.563 | 0.472 | 0.753 | 0.639 | 0.552 | 0.279 | 0.996 | 0.854 | 0.908 | 0.678 | 0.827 | 0.427 | 0.389 | 0.55 | 0.627 | 0.353 | 0.499 | 0.918 | 0.352 | 0.308
2 | CN(C)CCCOc1ccc(-c2ccc3ncc4c(c3c2)n(C2CCOCC2)c(=O)n4C)cn1 [AZD0156] + CCN(CCO)CCCOc1ccc2c(Nc3cc(CC(=O)Nc4cccc(F)c4)[nH]n3)ncnc2c1 [AZD2811] (first compound max 1 µM, 7x7, partner max 1 µM) | 0.299 | 0.157 | 0.19 | 0.281 | 0.322 | 0.302 | 0.999 | 0.21 | 0.239 | 0.626 | 0.312 | 0.722 | 0.0498 | 0.148 | 0.254 | 0.166 | 0.866 | 0.243 | 0.348 | 0.201
3 | CN(C)CCCOc1ccc(-c2ccc3ncc4c(c3c2)n(C2CCOCC2)c(=O)n4C)cn1 [AZD0156] + C[C@@H]1COCCN1C2=NC(=NC(=C2)C3(CC3)[S@](=N)(=O)C)C4=C5C=CNC5=NC=C4 [AZD6738] (first compound max 1 µM, 7x7, partner max 10 µM) | 0.522 | 0.656 | 0.744 | 0.76 | 0.727 | 0.552 | 0.987 | 0.59 | 0.79 | 0.911 | 0.908 | 0.869 | 0.685 | 0.697 | 0.462 | 0.695 | 0.862 | 0.953 | 0.578 | 0.446
4 | CN(C)CCCOc1ccc(-c2ccc3ncc4c(c3c2)n(C2CCOCC2)c(=O)n4C)cn1 [AZD0156] + O=C(c1cc(Cc2n[nH]c(=O)c3ccccc23)ccc1F)N1CCN(C(=O)C2CC2)CC1 [Olaparib] (first compound max 3 µM, partner max 3 µM) | 0.231 | 0.247 | 0.154 | 0.268 | 0.346 | 0.473 | 0.732 | 0.239 | 0.363 | 0.684 | 0.481 | 0.512 | 0.234 | 0.149 | 0.0888 | 0.197 | 0.478 | 0.467 | 0.453 | 0.277
5 | C=CCn1c(=O)c2cnc(Nc3ccc(N4CCN(C)CC4)cc3)nc2n1-c1cccc(C(C)(C)O)n1 [AZD1775] + C1CN(CCC1(C(=O)N[C@@H](CCO)C2=CC=C(C=C2)Cl)N)C3=NC=NC4=C3C=CN4 [Capivasertib] (first compound max 3 µM, partner max 3 µM) | 0.657 | 0.663 | 0.754 | 0.815 | 0.715 | 0.503 | 1 | 0.938 | 0.894 | 0.988 | 0.945 | 0.717 | 0.629 | 0.672 | 0.732 | 0.503 | 0.886 | 0.947 | 0.519 | 0.676
6 | C=CCn1c(=O)c2cnc(Nc3ccc(N4CCN(C)CC4)cc3)nc2n1-c1cccc(C(C)(C)O)n1 [AZD1775] + C[C@@H]1COCCN1C2=NC(=NC(=C2)C3(CC3)[S@](=N)(=O)C)C4=C5C=CNC5=NC=C4 [AZD6738] (first compound max 1 µM, partner max 10 µM) | 0.658 | 0.732 | 0.902 | 0.884 | 0.834 | 0.652 | 1 | 0.92 | 0.935 | 0.913 | 0.922 | 0.918 | 0.662 | 0.843 | 0.654 | 0.698 | 0.966 | 0.965 | 0.69 | 0.517
7 | C=CCn1c(=O)c2cnc(Nc3ccc(N4CCN(C)CC4)cc3)nc2n1-c1cccc(C(C)(C)O)n1 [AZD1775] + O=C(c1cc(Cc2n[nH]c(=O)c3ccccc23)ccc1F)N1CCN(C(=O)C2CC2)CC1 [Olaparib] (first compound max 1 µM, partner max 10 µM) | 0.668 | 0.447 | 0.779 | 0.609 | 0.547 | 0.433 | 0.999 | 0.905 | 0.882 | 0.562 | 0.728 | 0.301 | 0.461 | 0.472 | 0.552 | 0.455 | 0.799 | 0.93 | 0.428 | 0.284
8 | CCN(CCO)CCCOc1ccc2c(Nc3cc(CC(=O)Nc4cccc(F)c4)[nH]n3)ncnc2c1 [AZD2811] + C=CCn1c(=O)c2cnc(Nc3ccc(N4CCN(C)CC4)cc3)nc2n1-c1cccc(C(C)(C)O)n1 [AZD1775] (first compound max 1 µM, partner max 1 µM) | 0.522 | 0.416 | 0.821 | 0.56 | 0.539 | 0.279 | 1 | 0.89 | 0.981 | 0.87 | 0.718 | 0.651 | 0.367 | 0.472 | 0.601 | 0.33 | 0.896 | 0.911 | 0.423 | 0.296
9 | CCN(CCO)CCCOc1ccc2c(Nc3cc(CC(=O)Nc4cccc(F)c4)[nH]n3)ncnc2c1 [AZD2811] + C[C@@H]1COCCN1C2=NC(=NC(=C2)C3(CC3)[S@](=N)(=O)C)C4=C5C=CNC5=NC=C4 [AZD6738] (first compound max 1 µM, 7x7, partner max 10 µM) | 0.325 | 0.55 | 0.784 | 0.668 | 0.697 | 0.567 | 1 | 0.615 | 0.684 | 0.908 | 0.859 | 0.864 | 0.677 | 0.688 | 0.449 | 0.602 | 0.802 | 0.936 | 0.54 | 0.437
10 | CCN(CCO)CCCOc1ccc2c(Nc3cc(CC(=O)Nc4cccc(F)c4)[nH]n3)ncnc2c1 [AZD2811] + O=C(c1cc(Cc2n[nH]c(=O)c3ccccc23)ccc1F)N1CCN(C(=O)C2CC2)CC1 [Olaparib] (first compound max 1 µM, 7x7, partner max 10 µM) | 0.312 | 0.184 | 0.19 | 0.265 | 0.274 | 0.337 | 1 | 0.276 | 0.223 | 0.538 | 0.354 | 0.714 | 0.245 | 0.227 | 0.105 | 0.189 | 0.915 | 0.423 | 0.474 | 0.281
11 | CN(CCO)CC[C@H](CSc1ccccc1)Nc1ccc(S(=O)(=O)NC(=O)c2ccc(N3CCC([C@@H](O)c4ccccc4-c4ccc(Cl)cc4)CC3)cc2)cc1S(=O)(=O)C(F)(F)F [AZD4320] + CN(C)CCCOc1ccc(-c2ccc3ncc4c(c3c2)n(C2CCOCC2)c(=O)n4C)cn1 [AZD0156] (first compound max 1 µM, 7x7, partner max 1 µM) | 0.271 | 0.217 | 0.276 | 0.307 | 0.151 | 0.876 | 1 | 0.847 | 0.374 | 0.162 | 0.0251 | 0.291 | 0.245 | 0.184 | 0.37 | 0.375 | 0.274 | 0.13 | 0.134 | 0.202
12 | CS(=O)(=O)CCNCc1ccc(-c2ccc3ncnc(Nc4ccc(OCc5cccc(F)c5)c(Cl)c4)c3c2)o1 [Lapatinib] + NC1(c2ccc(-c3nc4ccn5c(=O)[nH]nc5c4cc3-c3ccccc3)cc2)CCC1 [MK-2206] (first compound max 10 µM, 7x7, partner max 10 µM) | – | 0.631 | 0.878 | 0.649 | 0.91 | 0.925 | 0.973 | – | 0.945 | 0.836 | 0.963 | – | 0.42 | – | – | 0.698 | 0.988 | 0.926 | 0.909 | –
13 | CCc1c2c(nc3ccc(O)cc13)-c1cc3c(c(=O)n1C2)COC(=O)[C@]3(O)CC [SN-38] + O=C(c1cc(Cc2n[nH]c(=O)c3ccccc23)ccc1F)N1CCN(C(=O)C2CC2)CC1 [Olaparib] (first compound max 0.3 µM, 7x7, partner max 10 µM) | – | 0.693 | 0.937 | 0.87 | – | 0.821 | 0.99 | 0.983 | 0.858 | – | 0.952 | 0.309 | – | 0.24 | – | 0.373 | 0.852 | 0.896 | 0.58 | –
